Earlier results, collected in patent US20040019053A1, “Combination of an allosteric carboxylic inhibitor of matrix metalloproteinase-13 with celecoxib or valdecoxib” (priority 2002, published 2004).

Cc1onc(-c2ccccc2)c1-c1ccc(S(N)(=O)=O)cc1 [valdecoxib, 4-(5-methyl-3-phenyl-4-isoxazolyl)-benzenesulfonamide]
Tolerability (combined analysis of clinical studies): well tolerated | Overall upper gastrointestinal safety profile (ulcers, perforations, obstructions and GI bleeds) (versus ibuprofen, diclofenac and naproxen): significantly better than the conventional NSAIDs studied
